Earlier results as cited in patent US20240148709A1, “METHODS OF TREATING EYE PAIN AND EYE DISORDERS” (Aisa Pharma, Inc., priority 2022, published 2024).

Conditions: oral dosing; cited from earlier work

CCOC(=O)C1=C(COCCN)NC(C)=C(C(=O)OC)C1c1ccccc1Cl (stereo not shown) [amlodipine]
time to achieve maximal plasma concentration (Tmax): 10 h
